The values below come from US11395847B2, “Acylated GLP-1/GLP-2 dual agonists” (Zealand Pharma A/S, priority 2016, dated 2022).

Each structure is given as a SMILES string. Where a SMILES comes first, the peptide text is derived from it.

Usually EC50 stands for the concentration giving half of the maximal effect.

In one data set the target is T1, human GLP-1 receptor (Homo sapiens, UniProt P43220).
T1 construct: expressed in transfected cells
Nature of the data set: GLP-1 receptor potency assay (cAMP ALPHASCREEN, HEK293 cells stably expressing GLP-1 R). The settings on record: cAMP response, HEK293 cells expressing human GLP-1 R. Type of data set: cell-based. A digest of the protocol:
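Clonal HEK293 line stably transfected with human GLP-1R (G418-selected) was treated with test compounds and the cAMP response quantified by ALPHASCREEN. Signals were normalized to positive control and vehicle, with EC50 and maximal response taken from concentration-response curves.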
A general note: In Alpha technology, singlet oxygen from a donor bead excites a nearby acceptor bead.

For another data set, the target named is T2, human GLP-2 receptor (Homo sapiens, UniProt O95838, D470N).
T2 construct: expressed in transfected cells
T2 sequence (O95838 1-553 D470N): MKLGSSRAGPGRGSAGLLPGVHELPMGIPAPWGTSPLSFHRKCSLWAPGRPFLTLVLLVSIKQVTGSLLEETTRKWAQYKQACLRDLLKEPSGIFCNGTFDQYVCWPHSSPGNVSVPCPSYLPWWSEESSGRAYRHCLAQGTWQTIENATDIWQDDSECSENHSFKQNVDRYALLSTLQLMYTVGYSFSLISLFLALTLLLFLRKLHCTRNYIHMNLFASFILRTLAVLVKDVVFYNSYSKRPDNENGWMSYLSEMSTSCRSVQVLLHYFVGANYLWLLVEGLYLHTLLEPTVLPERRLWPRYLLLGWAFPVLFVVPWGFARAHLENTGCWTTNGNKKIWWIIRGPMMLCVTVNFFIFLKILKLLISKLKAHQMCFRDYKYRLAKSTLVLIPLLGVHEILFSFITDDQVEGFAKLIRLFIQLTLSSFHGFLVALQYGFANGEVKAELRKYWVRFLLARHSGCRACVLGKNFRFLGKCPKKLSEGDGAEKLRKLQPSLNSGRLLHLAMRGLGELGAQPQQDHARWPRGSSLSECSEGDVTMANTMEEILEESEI
Nature of the data set: GLP-2 receptor potency assay (cAMP ALPHASCREEN, HEK293 cells stably expressing GLP-2 R). In kind it is cell-based. To be noted: cAMP response, HEK293 cells expressing human GLP-2 R; read-out: EC50 GLP-2. A digest of the protocol:
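HEK293 clones stably transfected with the human GLP-2 receptor, selected with G418, were used. Intracellular cAMP was quantified by AlphaScreen. Responses were normalised to positive and vehicle controls, and EC50 and maximal response were taken from concentration-response curves.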

The nature of data set [1]: Chemical stability (RP-HPLC normalized purity after incubation at 40° C.). Type of data set: physicochemical. To be noted: 14-day incubation, 0.2 mg/ml, normalized purity (area-%); for pH 6 normalized stability: pH 6, 40° C.; for pH 7 normalized stability: pH 7, 40° C. An outline of the steps: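 Peptide at 0.2 mg/ml final in water adjusted to pH 6, 7, 7.5 or 9, incubated at 40° C for 14 days. Purity measured as main-peak area-% by C18 RP-HPLC (acetonitrile/TFA/water gradient, UV 220 nm) and normalized to T=0 set at 100 for each pH.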

T1 sequence (P43220 24-463): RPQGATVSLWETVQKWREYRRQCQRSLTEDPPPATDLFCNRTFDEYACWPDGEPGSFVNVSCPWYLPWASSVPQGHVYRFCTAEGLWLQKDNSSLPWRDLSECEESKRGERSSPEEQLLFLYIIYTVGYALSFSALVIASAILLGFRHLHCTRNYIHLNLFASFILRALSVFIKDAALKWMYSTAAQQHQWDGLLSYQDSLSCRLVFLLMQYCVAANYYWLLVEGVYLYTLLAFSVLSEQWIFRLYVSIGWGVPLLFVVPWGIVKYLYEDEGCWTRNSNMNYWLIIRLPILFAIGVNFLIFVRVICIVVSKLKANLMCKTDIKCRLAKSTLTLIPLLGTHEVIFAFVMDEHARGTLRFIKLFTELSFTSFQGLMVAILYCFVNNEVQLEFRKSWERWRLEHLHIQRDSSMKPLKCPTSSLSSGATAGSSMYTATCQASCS

Regarding `CC[C@H](C)[C@H](NC(=O)[C@H](Cc1ccccc1)NC(=O)[C@H](CC(=O)O)NC(=O)[C@H](CCCNC(=N)N)NC(=O)[C@H](C)NC(=O)[C@H](C)NC(=O)[C@H](CCC(N)=O)NC(=O)[C@H](CCCCNC(=O)CC[C@H](NC(=O)CCCCCCCCCCCCCCCCC(=O)O)C(=O)O)NC(=O)[C@H](CC(=O)O)NC(=O)[C@H](CC(C)C)NC(=O)[C@@H](NC(=O)[C@@H](NC(=O)[C@H](C)NC(=O)[C@H](CC(C)C)NC(=O)[C@H](CCC(=O)O)NC(=O)[C@H](CO)NC(=O)[C@H](CO)NC(=O)[C@H](Cc1ccccc1)NC(=O)[C@H](CO)NC(=O)CNC(=O)[C@H](CC(=O)O)NC(=O)C(C)(C)NC(=O)[C@@H](N)Cc1c[nH]cn1)[C@@H](C)O)[C@@H](C)CC)C(=O)N[C@@H](C)C(=O)N[C@@H](Cc1c[nH]c2ccccc12)C(=O)N[C@@H](CC(C)C)C(=O)N[C@H](C(=O)N[C@@H](CCC(N)=O)C(=O)N[C@@H](Cc1c[nH]cn1)C(=O)N[C@@H](CCCCN)C(=O)N[C@H](C(=O)N[C@H](C(=O)N[C@@H](CC(=O)O)C(=O)O)[C@@H](C)O)[C@@H](C)CC)[C@@H](C)CC` [A, reference compound] (HELM PEPTIDE1{H.[Aib].D.G.S.F.S.S.E.L.A.T.I.L.D.K.Q.A.A.R.D.F.I.A.W.L.I.Q.H.K.I.T.D}|PEPTIDE2{[O=C(O)CCCCCCCCCCCCCCCCC(=O)[*:2]].[gGlu]}$PEPTIDE1,PEPTIDE2,16:R3-2:R2$$$V2.0), the midpoint of the response on human GLP-1 receptor, the EC50, lay at 490 pM. On human GLP-2 receptor, the concentration giving a half-maximal response (EC50) was 83 pM. Besides, in data set [1], the “pH 6 normalized stability” value is given as “C (<80% normalized stability)” and the “pH 7 normalized stability” value is reported as “B (>80% stability)”.
`CC[C@H](C)[C@H](NC(=O)[C@H](Cc1ccccc1)NC(=O)[C@H](CC(=O)O)NC(=O)[C@H](CCCNC(=N)N)NC(=O)[C@H](C)NC(=O)[C@H](C)NC(=O)[C@H](CCC(N)=O)NC(=O)[C@H](CCCCNC(=O)CC[C@H](NC(=O)CCCCCCCCCCCCCCCCC(=O)O)C(=O)O)NC(=O)[C@H](CC(=O)O)NC(=O)[C@H](CC(C)C)NC(=O)[C@@H](NC(=O)[C@@H](NC(=O)[C@H](C)NC(=O)[C@H](CC(C)C)NC(=O)[C@H](CCC(=O)O)NC(=O)[C@H](CO)NC(=O)[C@@H](NC(=O)[C@H](Cc1ccccc1)NC(=O)[C@H](CO)NC(=O)CNC(=O)[C@H](CCC(=O)O)NC(=O)C(C)(C)NC(=O)[C@@H](N)Cc1c[nH]cn1)[C@@H](C)O)[C@@H](C)O)[C@@H](C)CC)C(=O)N[C@@H](C)C(=O)N[C@@H](Cc1c[nH]c2ccccc12)C(=O)N[C@@H](CC(C)C)C(=O)N[C@H](C(=O)N[C@@H](CCCNC(=N)N)C(=O)N[C@@H](Cc1c[nH]cn1)C(=O)N[C@@H](CCCCN)C(=O)N[C@H](C(=O)N[C@H](C(=O)N[C@@H](CC(=O)O)C(=O)O)[C@@H](C)O)[C@@H](C)CC)[C@@H](C)CC` [Compound 30] (HELM PEPTIDE1{H.[Aib].E.G.S.F.T.S.E.L.A.T.I.L.D.K.Q.A.A.R.D.F.I.A.W.L.I.R.H.K.I.T.D}|PEPTIDE2{[O=C(O)CCCCCCCCCCCCCCCCC(=O)[*:2]].[gGlu]}$PEPTIDE1,PEPTIDE2,16:R3-2:R2$$$V2.0): the EC50 on human GLP-1 receptor came to 310 pM; at human GLP-2 receptor, 380 pM. Further, the “pH 7 normalized stability” value in data set [1] is recorded as “A (>90% normalised stability)”.
`CC[C@H](C)[C@H](NC(=O)[C@H](Cc1ccccc1)NC(=O)[C@H](CC(=O)O)NC(=O)[C@H](CCCNC(=N)N)NC(=O)[C@H](C)NC(=O)[C@H](C)NC(=O)[C@H](CCC(N)=O)NC(=O)[C@H](CCCCNC(=O)CC[C@H](NC(=O)CCCCCCCCCCCCCCCCC(=O)O)C(=O)O)NC(=O)[C@H](CC(=O)O)NC(=O)[C@H](CC(C)C)NC(=O)[C@@H](NC(=O)[C@@H](NC(=O)[C@H](C)NC(=O)[C@H](CC(C)C)NC(=O)[C@H](CCC(=O)O)NC(=O)[C@H](CO)NC(=O)[C@@H](NC(=O)[C@H](Cc1ccccc1)NC(=O)[C@H](CO)NC(=O)CNC(=O)[C@H](CCC(=O)O)NC(=O)C(C)(C)NC(=O)[C@@H](N)Cc1c[nH]cn1)[C@@H](C)O)[C@@H](C)O)[C@@H](C)CC)C(=O)N[C@@H](C)C(=O)N[C@@H](Cc1c[nH]c2ccccc12)C(=O)N[C@@H](CC(C)C)C(=O)N[C@H](C(=O)N[C@@H](CO)C(=O)N[C@@H](Cc1c[nH]cn1)C(=O)N[C@@H](CCCCN)C(=O)N[C@H](C(=O)N[C@H](C(=O)N[C@@H](CC(=O)O)C(=O)O)[C@@H](C)O)[C@@H](C)CC)[C@@H](C)CC` [Compound 31] (HELM PEPTIDE1{H.[Aib].E.G.S.F.T.S.E.L.A.T.I.L.D.K.Q.A.A.R.D.F.I.A.W.L.I.S.H.K.I.T.D}|PEPTIDE2{[O=C(O)CCCCCCCCCCCCCCCCC(=O)[*:2]].[gGlu]}$PEPTIDE1,PEPTIDE2,16:R3-2:R2$$$V2.0) had an EC50 on human GLP-1 receptor of 270 pM. The EC50 on human GLP-2 receptor was 240 pM. In data set [1], the “pH 6 normalized stability” value is reported as “A (>90% normalised stability)” and the “pH 7 normalized stability” value is “A (>90% normalised stability)”.
With `CC[C@H](C)[C@H](NC(=O)[C@H](Cc1ccccc1)NC(=O)[C@H](CC(=O)O)NC(=O)[C@H](CCCNC(=N)N)NC(=O)[C@H](C)NC(=O)[C@H](C)NC(=O)[C@H](CCCCNC(=O)COCCOCCNC(=O)[C@H](CCCCN)NC(=O)[C@H](CCC(=O)O)NC(=O)[C@H](CCCCN)NC(=O)CC[C@H](NC(=O)CCCCCCCCCCCCCCCCCCC(=O)O)C(=O)O)NC(=O)[C@H](C)NC(=O)[C@H](CC(=O)O)NC(=O)[C@H](CC(C)C)NC(=O)[C@@H](NC(=O)[C@@H](NC(=O)[C@H](C)NC(=O)[C@H](CC(C)C)NC(=O)[C@H](CCC(=O)O)NC(=O)[C@H](CO)NC(=O)[C@@H](NC(=O)[C@H](Cc1ccccc1)NC(=O)[C@H](CO)NC(=O)CNC(=O)[C@H](CCC(=O)O)NC(=O)C(C)(C)NC(=O)[C@@H](N)Cc1c[nH]cn1)[C@@H](C)O)[C@@H](C)O)[C@@H](C)CC)C(=O)N[C@@H](C)C(=O)N[C@@H](Cc1c[nH]c2ccccc12)C(=O)N[C@@H](CC(C)C)C(=O)N[C@H](C(=O)N[C@@H](CCC(=O)O)C(=O)N[C@@H](Cc1c[nH]cn1)C(=O)N[C@@H](CCCCN)C(=O)N[C@H](C(=O)N[C@H](C(=O)N[C@@H](CC(=O)O)C(=O)O)[C@@H](C)O)[C@@H](C)CC)[C@@H](C)CC` [Compound 62] (HELM PEPTIDE1{H.[Aib].E.G.S.F.T.S.E.L.A.T.I.L.D.A.K.A.A.R.D.F.I.A.W.L.I.E.H.K.I.T.D}|PEPTIDE2{[O=C(O)CCCCCCCCCCCCCCCCCCC(=O)[*:2]].[gGlu].K.E.K.[O=C(COCCOCCN[*:1])[*:2]]}$PEPTIDE1,PEPTIDE2,17:R3-6:R2$$$V2.0), the EC50 at human GLP-1 receptor worked out at 270 pM; on human GLP-2 receptor, 150 pM.
With `CC[C@H](C)[C@H](NC(=O)[C@H](Cc1ccccc1)NC(=O)[C@H](CC(=O)O)NC(=O)[C@H](CCCCNC(=O)COCCOCCNC(=O)[C@H](CCCCN)NC(=O)[C@H](CCC(=O)O)NC(=O)[C@H](CCCCN)NC(=O)CC[C@H](NC(=O)CCCCCCCCCCCCCCCCCCC(=O)O)C(=O)O)NC(=O)[C@H](C)NC(=O)[C@H](C)NC(=O)[C@H](CCC(N)=O)NC(=O)[C@H](CCC(=O)O)NC(=O)[C@H](CC(=O)O)NC(=O)[C@H](CC(C)C)NC(=O)[C@@H](NC(=O)[C@@H](NC(=O)[C@H](C)NC(=O)[C@H](CC(C)C)NC(=O)[C@H](CCC(=O)O)NC(=O)[C@H](CO)NC(=O)[C@@H](NC(=O)[C@H](Cc1ccccc1)NC(=O)[C@@H](NC(=O)CNC(=O)[C@H](CCC(=O)O)NC(=O)C(C)(C)NC(=O)[C@@H](N)Cc1c[nH]cn1)[C@@H](C)O)[C@@H](C)O)[C@@H](C)O)[C@@H](C)CC)C(=O)N[C@@H](C)C(=O)N[C@@H](Cc1c[nH]c2ccccc12)C(=O)N[C@@H](CC(C)C)C(=O)N[C@H](C(=O)N[C@@H](CCC(=O)O)C(=O)N[C@@H](Cc1c[nH]cn1)C(=O)N[C@@H](CCCCN)C(=O)N[C@H](C(=O)N[C@H](C(=O)N[C@@H](CC(=O)O)C(=O)O)[C@@H](C)O)[C@@H](C)CC)[C@@H](C)CC` [Compound 65] (HELM PEPTIDE1{H.[Aib].E.G.T.F.T.S.E.L.A.T.I.L.D.E.Q.A.A.K.D.F.I.A.W.L.I.E.H.K.I.T.D}|PEPTIDE2{[O=C(O)CCCCCCCCCCCCCCCCCCC(=O)[*:2]].[gGlu].K.E.K.[O=C(COCCOCCN[*:1])[*:2]]}$PEPTIDE1,PEPTIDE2,20:R3-6:R2$$$V2.0), the EC50 worked out at 130 pM at human GLP-1 receptor and 350 pM at human GLP-2 receptor.
